From patent publication US20090215752A1, “Compounds, preparation and therapeutic use thereof” (priority 2005, published 2009)

Tests used:
PDE2 = target: T1, PDE2 (Homo sapiens, UniProt O00408); assay: Inhibition of PDE2 (radioenzymatic phosphodiesterase assay); assay type: biochemical; conditions: for inhibition at 10 µM: Table 1, 10 μM compound, 1 μM cyclic AMP, read-out: PDE2 percentage inhibition at 10 μM
T1 construct: PDE2 was isolated from human platelets, provided by Etablissement Français du Sang-Alsace; tissue Etablissement Français du Sang-Alsace; host or cells: human platelets
T1 sequence (O00408 whole entry): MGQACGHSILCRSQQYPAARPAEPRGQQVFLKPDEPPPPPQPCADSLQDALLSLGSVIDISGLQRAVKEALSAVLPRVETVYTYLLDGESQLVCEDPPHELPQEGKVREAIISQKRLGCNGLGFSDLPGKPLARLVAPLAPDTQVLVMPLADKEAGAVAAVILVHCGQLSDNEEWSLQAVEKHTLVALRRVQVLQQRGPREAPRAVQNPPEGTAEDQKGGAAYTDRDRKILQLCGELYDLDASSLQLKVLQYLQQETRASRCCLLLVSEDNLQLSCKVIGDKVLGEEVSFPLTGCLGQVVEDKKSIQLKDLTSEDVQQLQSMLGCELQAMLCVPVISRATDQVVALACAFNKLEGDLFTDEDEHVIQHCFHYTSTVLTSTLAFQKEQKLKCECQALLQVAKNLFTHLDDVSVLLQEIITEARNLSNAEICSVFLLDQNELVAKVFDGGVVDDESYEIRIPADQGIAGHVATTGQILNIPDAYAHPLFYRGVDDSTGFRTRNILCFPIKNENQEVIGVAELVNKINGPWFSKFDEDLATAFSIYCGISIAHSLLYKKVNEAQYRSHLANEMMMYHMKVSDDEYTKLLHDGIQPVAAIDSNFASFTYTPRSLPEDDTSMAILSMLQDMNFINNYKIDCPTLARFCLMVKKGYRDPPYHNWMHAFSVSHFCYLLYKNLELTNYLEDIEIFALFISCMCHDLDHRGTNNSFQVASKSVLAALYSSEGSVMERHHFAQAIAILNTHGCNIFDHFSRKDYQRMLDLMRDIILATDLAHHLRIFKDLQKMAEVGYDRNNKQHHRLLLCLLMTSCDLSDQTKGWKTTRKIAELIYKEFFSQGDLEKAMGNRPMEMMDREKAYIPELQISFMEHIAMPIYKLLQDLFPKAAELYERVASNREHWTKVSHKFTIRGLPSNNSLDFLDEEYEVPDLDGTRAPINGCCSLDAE
Method: (§1) 2.1.1. Isolation of Phosphodiesterases from Smooth Muscle A 3 g segment of bovine aortic media cut into pieces with scissors was homogenized with an ultra-turrax then a potter glass/glass homogenizer in 7 volumes by weight of buffer A containing a protease inhibitor cocktail (20 mM Tris-HCl, 0.25 M saccharose, 2 mM magnesium acetate, 1 mM dithiothreitol, 5 mM EGTA, 2000 U/ml aprotinin, 10 mg/l leupeptin and 10 mg/l soya trypsic inhibitor). The homogenizate was centrifuged at 105,000 g for 1 hour. The supernatant was loaded on a DEAE-Sephacel column (15×1.6 cm) pre-equilibrated with buffer B (buffer A without the saccharose, EGTA and protease inhibitors). The column was washed until there was no detectable absorption at 280 nm, then eluted with a linear gradient of NaCl (0-0.5 M) in buffer B. 3-ml fractions were collected and enzyme activity was determined under the conditions described hereinbelow to localize the different enzymes PDE1, PDE3, PDE4 and PDE5 which were aliquoted and frozen at −80° C. (Lugnier et al., Biochem. Phamacol., 1986, 35: 1746-1751). PDE2 was isolated from human platelets, provided by Etablissement Français du Sang-Alsace, according to Kameni Tcheudji J F et al., (J. Mol. Biol. 2001; 310: 181-791), and stored until use at −80° C. in small aliquots.
(§2) Cyclic nucleotide phosphodiesterase activity was determined by a radioenzymatic method using tritium-labelled cyclic GMP or AMP (1 μM) as substrate (Lugnier et al., 1986). ^3H-labelled adenosine or guanosine monophosphate formed by hydrolysis of the radiolabelled cyclic nucleotide was then converted to ^3H-labelled adenosine or guanosine in a second reaction with […] in excess. The nucleoside formed was separated from the nucleotides by anion exchange chromatography. Nucleoside radioactivity was determined by liquid scintillation counting. Enzymatic incubations were carried out under conditions allowing no more than 15% hydrolysis of the substrate; each point was performed in duplicate.
The concentration of substance which inhibits enzymatic activity by 50% (IC50) at 1 μM cyclic AMP was calculated by nonlinear regression from the experimental values of hydrolysis rate (Prism, GraphPad).

PDE3 = target: T2, PDE3 (Bos taurus, UniProt A0A3Q1M1E8); assay: Selectivity: inhibition of PDE3 (radioenzymatic assay); assay type: biochemical, bovine; conditions: Table 2; 10 μM compound; read-out: PDE3 percentage inhibition at 10 μM
T2 sequence (A0A3Q1M1E8 1-1126): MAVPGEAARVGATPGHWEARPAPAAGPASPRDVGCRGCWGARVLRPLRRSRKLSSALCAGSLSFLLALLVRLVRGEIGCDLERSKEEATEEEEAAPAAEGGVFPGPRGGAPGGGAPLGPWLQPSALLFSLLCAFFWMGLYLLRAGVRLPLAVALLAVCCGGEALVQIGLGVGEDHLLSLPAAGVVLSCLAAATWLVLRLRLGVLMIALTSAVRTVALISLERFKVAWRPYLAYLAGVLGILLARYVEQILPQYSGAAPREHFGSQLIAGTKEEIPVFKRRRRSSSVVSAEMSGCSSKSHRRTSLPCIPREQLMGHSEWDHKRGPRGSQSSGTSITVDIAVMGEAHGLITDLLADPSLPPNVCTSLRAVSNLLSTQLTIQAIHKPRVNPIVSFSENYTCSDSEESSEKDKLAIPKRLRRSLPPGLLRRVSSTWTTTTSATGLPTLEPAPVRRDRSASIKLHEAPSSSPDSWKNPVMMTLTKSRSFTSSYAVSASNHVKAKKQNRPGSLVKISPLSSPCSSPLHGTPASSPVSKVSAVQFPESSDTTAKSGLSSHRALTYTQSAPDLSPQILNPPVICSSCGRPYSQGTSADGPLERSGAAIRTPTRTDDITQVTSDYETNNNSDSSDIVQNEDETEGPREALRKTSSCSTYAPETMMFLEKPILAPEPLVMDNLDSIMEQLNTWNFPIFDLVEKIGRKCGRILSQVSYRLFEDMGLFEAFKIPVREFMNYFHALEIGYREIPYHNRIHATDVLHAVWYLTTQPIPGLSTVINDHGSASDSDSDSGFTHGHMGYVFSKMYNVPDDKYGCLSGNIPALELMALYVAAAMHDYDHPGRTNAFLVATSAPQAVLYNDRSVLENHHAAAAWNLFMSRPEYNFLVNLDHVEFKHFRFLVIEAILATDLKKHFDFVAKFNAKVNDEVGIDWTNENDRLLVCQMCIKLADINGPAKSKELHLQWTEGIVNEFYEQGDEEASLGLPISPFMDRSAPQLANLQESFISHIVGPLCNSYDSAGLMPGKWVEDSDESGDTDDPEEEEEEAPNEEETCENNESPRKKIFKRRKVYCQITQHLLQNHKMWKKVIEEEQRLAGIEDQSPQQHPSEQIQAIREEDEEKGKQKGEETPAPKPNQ
Method: as §1, with “PDE2 was isolated from human platelets, provided by Etablissement Français du Sang-Alsace, according to Kameni Tcheudji J F et al., (J. Mol. Biol. 2001; 310: 181-791), and stored until use at −80° C. in small aliquots.” left out
as §2, with “The nucleoside formed was separated from the nucleotides by anion exchange chromatography.” left out, “Enzymatic incubations were carried out under conditions allowing no more than 15% hydrolysis of the substrate; each point was performed in duplicate.” left out
(§3) The activity of the compounds was evaluated on other phosphodiesterase isoforms, particularly basal state or calmodulin-activated PDE1 from vascular smooth muscle, PDE3, PDE4 and PDE5 from vascular smooth muscle. The results obtained are presented in Tables 1 and 2 hereinbelow and are expressed as the percentage inhibition of enzymatic activity produced by […] of the test compound.

PDE4 = assay: Selectivity: inhibition of PDE4 (radioenzymatic assay); assay type: biochemical, bovine; conditions: Table 2; 10 μM compound
Method: as §1, §2, §3

PDE1 = assay: Selectivity: inhibition of PDE1 (radioenzymatic assay); assay type: biochemical, bovine; conditions: Table 2; 10 μM compound
Method: as §1, with “PDE2 was isolated from human platelets, provided by Etablissement Français du Sang-Alsace, according to Kameni Tcheudji J F et al., (J. Mol. Biol. 2001; 310: 181-791), and stored until use at −80° C. in small aliquots.” left out
as §2, with “The nucleoside formed was separated from the nucleotides by anion exchange chromatography.” left out, “Enzymatic incubations were carried out under conditions allowing no more than 15% hydrolysis of the substrate; each point was performed in duplicate.” left out
as §3

PDE5 = target: T3, PDE5 (Bos taurus, UniProt Q28156); assay: Selectivity: inhibition of PDE5 (radioenzymatic assay); assay type: biochemical, bovine; conditions: Table 2; 10 μM compound; read-out: PDE5 percentage inhibition at 10 μM
T3 construct: PDE3, PDE4 and PDE5 from vascular smooth muscle; from tissue; host or cells: bovine aortic media (vascular smooth muscle), DEAE-Sephacel fraction
Method: as §1, with “PDE2 was isolated from human platelets, provided by Etablissement Français du Sang-Alsace, according to Kameni Tcheudji J F et al., (J. Mol. Biol. 2001; 310: 181-791), and stored until use at −80° C. in small aliquots.” left out
as §2, with “The nucleoside formed was separated from the nucleotides by anion exchange chromatography.” left out, “Enzymatic incubations were carried out under conditions allowing no more than 15% hydrolysis of the substrate; each point was performed in duplicate.” left out
as §3

| SMILES | IC50 (PDE2) | inhibition at 10 µM (PDE2) | inhibition at 10 µM (PDE3) | PDE4 percentage inhibition at 10 μM (PDE4) | PDE1 percentage inhibition at 10 μM (PDE1) | inhibition at 10 µM (PDE5) |
| --- | --- | --- | --- | --- | --- | --- |
| COc1cc2c(c(OC)c1-c1ccccc1)C(c1cccc(C#N)c1)=NCC(=O)N2C [Compound 6, 3-(6,8-Dimethoxy-1-methyl-2-oxo-7-phenyl-2,3-dihydro-1H-benzo[e][1,4]diazepin-5-yl)-benzonitrile] | 1.8 µM | 80% | 40% | 37% | – | – |
| COCCCc1cccc(C2=NCC(=O)N(C)c3cc(OC)c(-c4ccccc4)c(OC)c32)c1 [Compound 29, 6,8-Dimethoxy-5-[3-(3-methoxy-propyl)-phenyl]-1-methyl-7-phenyl-1,3-dihydro-benzo[e][1,4]diazepin-2-one] | 0.8 µM | 91% | 40% | 49% | 31% | 19% |
